The results in this text go back to US8946268B2, “Modulators of HEC1 activity and methods therefor” (Taivex Therapeutics, Inc., priority 2010, dated 2015).

“And” between values parts separate entries of the source, which are not always exact repeats. Equal entries are not always repeated. Where two headings read alike, the source gives them in different places.

The nature of series [1]: Pharmacokinetics in rats after i.v. injection. It is filed as in vivo, SD rat. The protocol: (§1) Bioavailability: Selected compounds were administered to rats per os or via injection following well known procedures.
Series [2] is described as follows: Pharmacokinetics in rats after oral administration. The settings on record: for MRT inf: read-out: MRT0-inf. Type of series: in vivo, SD rat. The protocol: as §1
In series [3] the test system is Hela. Description: Antiproliferative activity (MTS assay), Hela. Type of series: cell-based. The following applies: Homo sapiens, HeLa, 96 h, Hela cells. The essentials: (§2)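 Cells were dosed in triplicate after overnight attachment and incubated 96 h at 37 °C, with DMSO controls. Viability was read by MTS absorbance. Values come from concentration-response curves by linear regression, with GI50 corrected for time-zero cell count as [1−(T−T0)/(C−T0)]×100.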
(In general: Tetrazolium dyes change colour on reduction, which living cells bring about.)

The subject of series [4] is K562. Description: Antiproliferative activity (MTS assay), K562. Type of series: cell-based. The settings on record: Homo sapiens, K562, 96 h, K562 cells. The essentials:
as §2

Series [5] has as its system MDA-MB-468. Description: Antiproliferative activity (MTS assay), MDA-MB-468. Type of series: cell-based. The following applies: Homo sapiens, MDA-MB-468, 96 h, MDA-MB-468 cells. An outline of the steps: as §2
The subject of series [6] is MDA-MB-231. Put plainly: Antiproliferative activity (MTS assay), MDA-MB-231. Type of series: cell-based. The settings on record: Homo sapiens, MDA-MB-231, 96 h, MDA-MB-231 cells. The essentials: as §2
Series [7] is described as follows: Combination of Hec1 inhibitors with chemotherapeutic inhibitors. The settings on record: preliminary data.
Where [8] appears, read: compound 42 i.v., SD rat, individual rats No. 1-3.
The mark [9] stands for this setting: compound 42 oral, SD rat, individual rats No. 1-3.
Where [10] appears, read: i.v. 2 mg/kg, SD rat, individual rats No. 1-3, 2 mg/kg.
Where [11] appears, read: Sprague-Dawley, rat, serum, po, 20 mg/kg, oral 20 mg/kg, 1% methyl-cellulose, SD rat, Mean.
Where [12] appears, read: Sprague-Dawley, rat, serum, po, 20 mg/kg, oral 20 mg/kg, SD rat, individual rats No. 1-3.
Setting [13] is: oral 20 mg/kg, SD rat, individual rats No. 1-3, 20 mg/kg.
The mark [14] stands for this setting: compound 95 i.v., SD rat, individual rats No. 1-3.
Setting [15] is: compound 95 oral, SD rat, individual rats No. 1-3.

For orientation: MRT means the average time that molecules of a dose stay in the body. In general, half-life refers to the time in which the quantity being followed falls by half. A higher half-life goes with slow decline. As usually defined, the Tmax is the time at which the peak concentration occurs. As to `COc1cc(C)c(-c2csc(NC(=O)c3ccncc3)n2)c(C)c1` [Compound 42], the C0 is 11.5 µg/mL in series [1] (Sprague-Dawley, rat, serum, iv, 2 mg/kg, compound 42 i.v., SD rat, individual rats No. 1-3, read-out: C0); 11.5 µg/mL in series [1] (Sprague-Dawley, rat, serum, iv, 2 mg/kg, compound 42 i.v., formulation and route otherwise identical to compound 82, SD rat, Mean, read-out: C0); 11.344 µg/mL and 11.625 µg/mL in series [1] (setting [8]). The MRT in series [1] (Sprague-Dawley, rat, serum, iv, 2 mg/kg, compound 42 i.v., SD rat, individual rats No. 1-3, read-out: MRT) was 1.3 h; in series [1] (Sprague-Dawley, rat, serum, iv, 2 mg/kg, compound 42 i.v., formulation and route otherwise identical to compound 82, SD rat, Mean, read-out: MRT), 1.26 h; in series [1] (setting [8]) it was 1.20 h and 1.28 h; in series [2] (Sprague-Dawley, rat, serum, po, 20 mg/kg, compound 42 oral, SD rat, individual rats No. 1-3, read-out: MRT), 3.46 h; in series [2] (Sprague-Dawley, rat, serum, po, 20 mg/kg, compound 42 oral, formulation and route otherwise identical to compound 82, SD rat, Mean, read-out: MRT), 3.36 h; in series [2] (setting [9]) it was 3.78 h and 2.83 h. The half-life in series [1] (Sprague-Dawley, rat, serum, iv, 2 mg/kg, compound 42 i.v., formulation and route otherwise identical to compound 82, SD rat, Mean) is 1.52 h; in series [2] (Sprague-Dawley, rat, serum, po, 20 mg/kg, compound 42 oral, SD rat, individual rats No. 1-3), 3.28 h; in series [2] (Sprague-Dawley, rat, serum, po, 20 mg/kg, compound 42 oral, formulation and route otherwise identical to compound 82, SD rat, Mean), 3.18 h. Besides, the T1/2 in series [1] (setting [8]) is 1.40 h and 0.99 h and 2.16 h; in series [2] (setting [9]) it was 3.30 h and 2.97 h. The time to peak (Tmax) in series [2] (Sprague-Dawley, rat, serum, po, 20 mg/kg, compound 42 oral, SD rat, individual rats No. 1-3, read-out: Tmax) turned out to be 1.5 h; in series [2] (Sprague-Dawley, rat, serum, po, 20 mg/kg, compound 42 oral, formulation and route otherwise identical to compound 82, SD rat, Mean, read-out: Tmax) it was 1.33 h; in series [2] (setting [9]) it was 1 h.

For `Cc1cc(OC(C)C)cc(C)c1-c1csc(NC(=O)c2ccncc2)n1` [Compound 82], the half-life is 5.14 h in series [1] (Sprague-Dawley, rat, serum, iv, 2 mg/kg, i.v. 2 mg/kg, 5% DMSO, 10% Cremophor, 85% WFI, SD rat, Mean); 4.41 h in series [2] (setting [11]); 4.53 h in series [2] (setting [12]). In addition, the C0 in series [1] (Sprague-Dawley, rat, serum, iv, 2 mg/kg, i.v. 2 mg/kg, 5% DMSO, 10% Cremophor, 85% WFI, SD rat, Mean, read-out: C0) was 7.02 µg/mL; in series [1] (Sprague-Dawley, rat, serum, iv, 2 mg/kg, i.v. 2 mg/kg, SD rat, individual rats No. 1-3, read-out: C0), 8.18 µg/mL; in series [1] (setting [10]), 5.59 µg/mL and 7.282 µg/mL. Moreover, the MRT inf in series [1] (Sprague-Dawley, rat, serum, iv, 2 mg/kg, i.v. 2 mg/kg, 5% DMSO, 10% Cremophor, 85% WFI, SD rat, Mean, read-out: MRT0-inf) came out at 6.46 h; in series [2] (setting [11]) it was 7.73 h; in series [2] (setting [12]), 7.71 h. The MRT0-inf in series [1] (setting [10]) is 8.80 h and 3.36 h and 7.22 h; in series [2] (setting [13]) it was 5.76 h and 9.72 h. The T1/2 in series [1] (setting [10]) is 6.85 h and 2.79 h and 5.78 h; in series [2] (setting [13]), 2.94 h and 5.76 h. Besides, the Tmax in series [2] (Sprague-Dawley, rat, serum, po, 20 mg/kg, oral 20 mg/kg, 1% methyl-cellulose, SD rat, Mean, read-out: Tmax) stood at 4 h; in series [2] (Sprague-Dawley, rat, serum, po, 20 mg/kg, oral 20 mg/kg, SD rat, individual rats No. 1-3, read-out: Tmax) it was 4 h.

Broadly, the IC50 is the midpoint of a concentration-inhibition curve. Low readings indicate greater potency in that assay, high ones weaker potency in that assay. As to `COc1ccc(Oc2cc(C)c(-c3csc(NC(=O)c4ccncc4)n3)c(C)c2)cc1` [Compound 95], the IC50 in series [3] was 0.05 µM; in series [4], 0.03 µM; in series [5] it was 0.04 µM; in series [6], 0.03 µM. For the same molecule, the MRT was 131 h in series [1] (Sprague-Dawley, rat, serum, iv, 2 mg/kg, compound 95 i.v., SD rat, individual rats No. 1-3, read-out: MRT); 143 h in series [1] (Sprague-Dawley, rat, serum, iv, 2 mg/kg, compound 95 i.v., formulation and route otherwise identical to compound 82, SD rat, Mean, read-out: MRT); 189 h and 108 h in series [1] (setting [14]); 4.4 h in series [2] (SD, rat, serum, po, 20 mg/kg, compound 95 oral, SD rat, individual rats No. 1-3, read-out: MRT); 4.24 h in series [2] (SD, rat, serum, po, compound 95 oral, formulation and route otherwise identical to compound 82, SD rat, Mean, read-out: MRT); 4.38 h and 3.92 h in series [2] (setting [15]). The half-life was 7.36 h in series [1] (Sprague-Dawley, rat, serum, iv, 2 mg/kg, compound 95 i.v., formulation and route otherwise identical to compound 82, SD rat, Mean); 10.9 h in series [2] (SD, rat, serum, po, compound 95 oral, formulation and route otherwise identical to compound 82, SD rat, Mean); 9.96 h in series [2] (Sprague-Dawley, rat, serum, po, 20 mg/kg, compound 95 oral, SD rat, individual rats No. 1-3). For the same molecule, the C0 is 3.67 µg/mL in series [1] (Sprague-Dawley, rat, serum, iv, 2 mg/kg, compound 95 i.v., formulation and route otherwise identical to compound 82, SD rat, Mean, read-out: C0); 2.519 µg/mL and 3.144 µg/mL and 5.356 µg/mL in series [1] (setting [14]). Also, the Tmax in series [2] (SD, rat, serum, po, compound 95 oral, formulation and route otherwise identical to compound 82, SD rat, Mean, read-out: Tmax) is 3 h; in series [2] (setting [15]), 4.00 h and 1.00 h. The T1/2 in series [2] (setting [15]) was 12.86 h and 9.75 h.

Regarding `COc1ccc(Oc2cc(C)c(-c3csc(NC(=O)c4ccncc4)n3)c(Cl)c2)cc1` [Compound 131], the IC50 amounted to 0.06 µM in series [3], 0.04 µM in series [4], 0.05 µM in series [5] and 0.04 µM in series [6].

Take `CC(=O)O[C@H]1C(=O)[C@@]2(C)[C@H]([C@H](OC(=O)c3ccccc3)[C@]3(O)C[C@H](OC(=O)[C@H](O)[C@@H](NC(=O)c4ccccc4)c4ccccc4)C(C)=C1C3(C)C)[C@]1(OC(C)=O)CO[C@@H]1C[C@@H]2O` [Taxol]: the “effect in combination of Hec1 inhibitors with chemotherapeutic inhibitors” value (from here on “effect in combination of Hec1 inhibitors”) in series [7] is given as “synergistic effect”.

In the case of `COc1cccc2c1C(=O)c1c(O)c3c(c(O)c1C2=O)C[C@@](O)(C(=O)CO)C[C@@H]3O[C@H]1C[C@H](N)[C@H](O)[C@H](C)O1` [doxorubicin], in series [7], the “effect in combination of Hec1 inhibitors” value is “at most additive effect”.

For the molecule `CC[C@]1(O)C[C@@H]2CN(CCc3c([nH]c4ccccc34)[C@@](C(=O)OC)(c3cc4c(cc3OC)N(C)[C@H]3[C@@](O)(C(=O)OC)[C@H](OC(C)=O)[C@]5(CC)C=CCN6CC[C@]43[C@@H]65)C2)C1` [vinblastine], the “effect in combination of Hec1 inhibitors” value in series [7] is given as “synergistic effect”.

Regarding `CC[C@]1(O)C[C@H]2CN(CCc3c([nH]c4ccccc34)[C@@](C(=O)OC)(c3cc4c(cc3OC)N(C=O)[C@H]3[C@@](O)(C(=O)OC)[C@H](OC(C)=O)[C@]5(CC)C=CCN6CC[C@]43[C@@H]65)C2)C1` [vincristine], the “effect in combination of Hec1 inhibitors” value in series [7] is on record as “synergistic effect”.
